Results published in patent EP4740947A1, “PHARMACEUTICAL COMBINATION OF EGFR KINASE INHIBITOR AND C-MET KINASE INHIBITOR FOR TREATING TUMOR DISEASES” (Jiangsu AoSaiKang Pharmaceutical Co., Ltd., priority 2023, dated 2025).

What was measured:
NCI-H1975-HGF = test: Efficacy study in xenograft model established with engineered cell line NCI-H1975-HGF in immunodeficient mice; assay type: in vivo, B-NDG mice; details: for NCI-H1975 HGF tumor volume (mm^3): mean ± standard error; for TGI (%) / ΔT/ΔC (%): Day 15 vs vehicle
Procedure: The efficacy of the test drugs in a xenograft model established with the engineered cell line NCI-H1975-HGF in immunodeficient mice was verified.
Table 1. Cell information
B-NDG mice, female, age: 8 weeks, weight: 18-22 g, purchased from Biocytogen.
• Vehicle: 20% solutol/80% 100 mM sodium acetate buffer pH 5.5; • ASK-MET: hydrochloride of the compound of Formula (II), prepared with 20% solutol/80% 100 mM sodium acetate buffer pH 5.5, concentration: 0.2 mg/mL; • ASK-EGFR: compound of Formula (I), prepared with 0.5% sodium carboxymethyl cellulose solution (0.5%CMC-Na), concentration: 2 mg/mL. • Solutol: polyethylene glycol-15 hydroxystearate; • 100 mM sodium acetate buffer pH 5.5; • 20% solutol/80% 100 mM sodium acetate buffer pH 5.5 means that the volume ratio of solutol to 100 mM sodium acetate buffer pH 5.5 in the drug solution was 20:80, the same below.
1) NCI-H1975-HGF was resuscitated and cultured in vitro to obtain 1.5*10^7 cells. 2) 15 8-10-week-old immunodeficient mice were adaptively raised for 1 week, and weighed. Table 2. Inoculation information
(§1) 4) After inoculation, the tumor volume and weight were measured twice a week. When the average tumor volume reached about 100 mm^3, the animals were randomly divided into 4 groups according to the tumor volume and weight, each group having 3 animals. The animals were immediately administered after grouping. The day of administration was regarded as day 0. Table 3. Grouping and administration information
After inoculation and before grouping, when the tumor was visible, the tumor volume of the test animals was measured once a week. After grouping, the tumor volume of animals in the experiment was measured twice a week. The tumor volume was measured by a two-way measurement method. The major and minor diameter of the tumor were measured by vernier caliper, and then the tumor volume was calculated by the formula TV = 1/2 × a × b^2, where a is the major diameter of the tumor and b is the minor diameter of the tumor.
At the end of the experiment, the following analysis methods were used for data analysis (Table 4). Table 4. Data analysis methods
For an experiment having two groups, T-Test analysis method is used; and for comparison of three or more groups, One-Way ANOVA method is used for analysis. For the potential synergistic effect, Two-Way ANOVA is used. There is a significant difference when p value is less than 0.05.

[1] = Body weight monitoring and daily observation in the NCI-H1975-HGF xenograft model; assay type: in vivo
Procedure: as §1
After inoculation, the disease attack and death of animals were observed every working day. Daily observation includes tumor growth and the effects of drugs on test animals, such as changes in activity, changes in food and water intake, weight loss, appearance changes in hair and eyes, death and other clinical symptoms.
After inoculation and before grouping, the weight of test animals was measured once a week. After grouping, the weight of the test animals was measured twice a week.

[2] = Day 0, ASK-EGFR 20 mg/kg p.o. QD×15 (G4)
[3] = Day 2, ASK-EGFR 20 mg/kg p.o. QD×15 (G4)
[4] = Day 5, ASK-EGFR 20 mg/kg p.o. QD×15 (G4)
[5] = Day 8, ASK-EGFR 20 mg/kg p.o. QD×15 (G4)
[6] = Day 12, ASK-EGFR 20 mg/kg p.o. QD×15 (G4)
[7] = Day 15, ASK-EGFR 20 mg/kg p.o. QD×15 (G4)
[8] = ASK-EGFR 20 mg/kg p.o. QD×15 (G4)
[9] = Day 0, ASK-MET 2 mg/kg p.o. QD×15 (G2)
[10] = Day 2, ASK-MET 2 mg/kg p.o. QD×15 (G2)
[11] = Day 5, ASK-MET 2 mg/kg p.o. QD×15 (G2)
[12] = Day 8, ASK-MET 2 mg/kg p.o. QD×15 (G2)
[13] = Day 12, ASK-MET 2 mg/kg p.o. QD×15 (G2)
[14] = Day 15, ASK-MET 2 mg/kg p.o. QD×15 (G2)
[15] = ASK-MET 2 mg/kg p.o. QD×15 (G2)

C=CC(=O)Nc1cc(Nc2ncc(Cl)c(Nc3ccc4ccccc4c3)n2)c(OC)cc1N(C)CCN(C)C [ASK-EGFR, N-((5-((5-chloro-4-((naphthalen-2-yl)amino))pyrimidin-2-yl)amino)-2-((N-methyl-N-dimethylaminoethyl)amino)-4-methoxyphenyl) acrylamide]
NCI-H1975 HGF tumor volume (mm^3) (NCI-H1975-HGF; [2]): 94.47 ±9.54 mm^3 | NCI-H1975 HGF tumor volume (mm^3) (NCI-H1975-HGF; [3]): 154.47 ±24.23 mm^3 | NCI-H1975 HGF tumor volume (mm^3) (NCI-H1975-HGF; [4]): 201.41 ±24.69 mm^3 | NCI-H1975 HGF tumor volume (mm^3) (NCI-H1975-HGF; [5]): 357.90 ±31.91 mm^3 | NCI-H1975 HGF tumor volume (mm^3) (NCI-H1975-HGF; [6]): 440.56 ±16.92 mm^3 | NCI-H1975 HGF tumor volume (mm^3) (NCI-H1975-HGF; [7]): 589.86±36.92 mm^3 | TGI (%) (NCI-H1975-HGF; [8]): 58.01% | ΔT/ΔC (%) (NCI-H1975-HGF; [8]): 41.99% | Weight [1, 2]: 22.0 ± 0.1 g | Weight [1, 3]: 21.9 ± 0.2 g | Weight [1, 4]: 22.1 ± 0.1 g | Weight [1, 5]: 21.1 ± 0.3 g | Weight [1, 6]: 21.5 ± 0.6 g | Weight [1, 7]: 21.0 ± 0.5 g

CC(C)(O)CN1CCC(COc2cnc(-c3cccc(Cn4c(=O)ccn5c6cc(C#N)ccc6nc45)c3)nc2)CC1 [ASK-MET]
NCI-H1975 HGF tumor volume (mm^3) (NCI-H1975-HGF; [9]): 96.28 ±7.10 mm^3 | NCI-H1975 HGF tumor volume (mm^3) (NCI-H1975-HGF; [10]): 147.46 ±23.06 mm^3 | NCI-H1975 HGF tumor volume (mm^3) (NCI-H1975-HGF; [11]): 274.61 ±85.69 mm^3 | NCI-H1975 HGF tumor volume (mm^3) (NCI-H1975-HGF; [12]): 434.60 ±55.60 mm^3 | NCI-H1975 HGF tumor volume (mm^3) (NCI-H1975-HGF; [13]): 658.86 ±111.99 mm^3 | NCI-H1975 HGF tumor volume (mm^3) (NCI-H1975-HGF; [14]): 940.03±159.86 mm^3 | TGI (%) (NCI-H1975-HGF; [15]): 28.48% | ΔT/ΔC (%) (NCI-H1975-HGF; [15]): 71.52% | Weight [1, 9]: 20.3 ± 1.0 g | Weight [1, 10]: 20.3 ± 1.3 g | Weight [1, 11]: 20.5 ± 1.0 g | Weight [1, 12]: 20.8 ± 0.3 g | Weight [1, 13]: 20.8 ± 0.4 g | Weight [1, 14]: 20.5 ± 0.4 g
